The values that follow come from patent US9821077B2, “Diagnostic substances for optical imaging testing on the basis of nanoparticular formulations” (NANOPET PHARMA GMBH, priority 2007, dated 2017).

Data set [1] in a line: Absorption spectra, absorption maximum. It is filed as physicochemical. The note with it: dye in water. On the procedure:
Absorption spectra in a wavelength range of 700 nm to 900 nm were recorded with a UVIKON 933 Spectrophotometer (company Kontron) in the various solvents. →ICG in water λmax=780 nm ICO micelles λmax=797 nm (FIG. 1A)
Absorption spectra were recorded in a wavelength range of 600 nm to 900 nm with a DU®530 Beckman Spectralphotometer in the various solvents. →ICG in water λmax=779 nm ICG-Cithrol 10 MS micelles λmax=800 nm (FIG. 2A)
Absorption spectra were recorded in a wavelength range of 600 nm to 900 nm with a DU®530 Beckman Spectralphotometer in the various solvents. →ICG in water λmax=779 nm ICG-Crodet S40 LD micelles λmax=800 nm (FIG. 3A)
(§1) Absorption spectra were recorded in a wavelength range of 600 nm to 900 nm with a DU®530 Beckman Spectralphotometer in the various solvents. […]
as §1
Absorption spectra were recorded in a wavelength range of 600 nm to 900 nm with a DU®530 Beckman Spectralphotometer in the various solvents. →NW003.5 in water λmax (monomer)=788 nm NW003.5-Solutol® HS 15 micelles λmax=806 nm (FIG. 6B)
Absorption spectra were recorded in a wavelength range of 600 nm to 900 nm with a DU®530 Beckman Spectra'photometer in the various solvents. →IR-783 in water λmax (Monomer)=775 nm IR-783-Solutol® HS 15 micelles λmax=797 nm (FIG. 7B)

Data set [2] can be described thus: Fluorescence measurements, quantum yield. It is filed as physicochemical. The following applies: in water; standard ICG in DMSO. The procedure: Fluorescence measurements were carried out by means of a FluoroLog-2 Spectrofluorometer (350 W Xenon lamp) of the company Spex. For this purpose, emission spectra of 700 nm to 900 nm were recorded. The excitation wavelength corresponded to the respective maximum of the formulation in the absorption spectrum (ICG in water λmax=780 nm and ICG micelles λmax=795 nm). Due to the s & r modus of the software DM 3000, the different lamp intensities of the different excitation wavelengths could be taken into account in the evaluation.
The quantum yield is calculated via the surface area below the emission curve. ICG in DMSO was used as the standard (Φ=0.13).
(§2) Fluorescence measurements were carried out by means of a Spectrofluorometer FP-6500 of the company JASCO. For this purpose, emission spectra of 770 to 900 nm were recorded. […] The quantum yield is calculated via the surface area below the emission curve. […]
as §2, §2

The nature of data set [3]: Stability test, absorption as a function of time. It counts as physicochemical. The following applies: purely aqueous formulation, 0.0005% ICG, room temperature, 7 days. The procedure: For the stability test the absorption in the maximum of the various formulations was measured as a function of time. For this purpose, 0.0005% ICG solutions were prepared and stored at room temperature.
For the stability test the absorption spectra of the various formulations were measured as a function of time.

Another data set deals with plasma protein. Put plainly: Plasma protein binding by wavelength shift in the absorption spectrum. It is filed as in vitro ADME. The text has this:
For this purpose, spectra of 700 nm to 900 nm of ICG in water and in plasma were compared with spectra of ICG micelles in water and in plasma.

For data set [4] the following is noted: in DMSO, used as the standard; cited from earlier work.

Several values for one entry are separate records, joined by “and”; a condition that tells them apart may be missing. Equal entries are not always repeated.

With `CC1(C)C(=CC=C2CCCC(C=CC3=[N+](CCCCS(=O)(=O)[O-])c4ccccc4C3(C)C)=C2Cl)N(CCCCS(=O)(=O)[O-])c2ccccc21.[Na+]` [IR-783], the “absorption maximum λmax” value in data set [1] came to 775 nm.
Turning to `CC1(C)C(/C=C/C=C/C=C/C=C2\N(CCCCS(=O)(=O)O)c3ccc4ccccc4c3C2(C)C)=[N+](CCCCS(=O)(=O)[O-])c2ccc3ccccc3c21` [ICG, indocyanine green], the “absorption maximum λmax” value in data set [1] was 779 nm and 780 nm. Further, the “fluorescence quantum yield Φ” value in data set [2] worked out at 0.02. Besides, the “standardized absorption after storage” value in data set [3] was “below 10%”. For the same compound, in the data set on plasma protein, the “absorption maximum in plasma” value is recorded as 805 nm. Also, the “fluorescence quantum yield Φ of the standard” value in data set [4] was 0.12 and 0.13.
